Like-named read-outs stand apart in the source and are kept apart here.
Tests used:
Test in all cases: KINOMEscan assay (Eurofins DiscoverX)
Assay type in all cases: binding
kinome (kinase panel) [1] = target: T1, kinome (kinase panel) (Homo sapiens, UniProt O00329); settings: PIK3CD; 1000 nM; read-out: Percent Control
T1 construct: purchased Eurofins DiscoverX

kinome (kinase panel) [2] = target: T2, kinome (kinase panel) (Homo sapiens, UniProt O00506); settings: YSK1 (STK25); 1000 nM; read-out: Percent Control
T2 construct: purchased Eurofins DiscoverX

kinome (kinase panel) [3] = target: T3, kinome (kinase panel) (Homo sapiens, UniProt O60674); settings: JAK2(JH1domain-catalytic); 1000 nM; read-out: Percent Control
T3 construct: purchased Eurofins DiscoverX

kinome (kinase panel) [4] = target: T4, kinome (kinase panel) (Homo sapiens, UniProt O75716); settings: STK16; 1000 nM; read-out: Percent Control
T4 construct: purchased Eurofins DiscoverX

kinome (kinase panel) [5] = target: T5, kinome (kinase panel) (Homo sapiens, UniProt O95819); settings: MAP4K4; 1000 nM; read-out: Percent Control
T5 construct: purchased Eurofins DiscoverX

kinome (kinase panel) [6] = target: T6, kinome (kinase panel) (Homo sapiens, UniProt P00533, L861Q); settings: […]; 1000 nM; read-out: Percent Control
T6 construct: purchased Eurofins DiscoverX

kinome (kinase panel) [7] = target: T7, kinome (kinase panel) (Homo sapiens, UniProt P06241); settings: FYN; 1000 nM; read-out: Percent Control
T7 construct: purchased Eurofins DiscoverX
T7 sequence (P06241 whole entry): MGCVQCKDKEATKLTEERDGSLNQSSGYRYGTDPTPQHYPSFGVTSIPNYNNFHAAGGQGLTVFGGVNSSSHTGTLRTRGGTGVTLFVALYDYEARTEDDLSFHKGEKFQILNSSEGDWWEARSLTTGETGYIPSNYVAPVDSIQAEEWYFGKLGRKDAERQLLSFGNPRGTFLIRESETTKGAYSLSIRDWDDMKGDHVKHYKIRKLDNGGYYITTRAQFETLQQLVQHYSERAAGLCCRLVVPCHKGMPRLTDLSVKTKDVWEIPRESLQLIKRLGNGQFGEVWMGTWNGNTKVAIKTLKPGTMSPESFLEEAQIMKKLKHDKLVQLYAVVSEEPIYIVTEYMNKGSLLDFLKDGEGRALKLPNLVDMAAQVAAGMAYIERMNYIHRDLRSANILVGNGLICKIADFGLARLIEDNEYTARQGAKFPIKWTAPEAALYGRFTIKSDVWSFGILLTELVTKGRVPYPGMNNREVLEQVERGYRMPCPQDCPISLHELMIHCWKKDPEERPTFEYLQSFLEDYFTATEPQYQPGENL

kinome (kinase panel) [8] = target: T8, kinome (kinase panel) (Homo sapiens, UniProt P07947); settings: YES (YES1); 1000 nM; read-out: Percent Control
T8 construct: purchased Eurofins DiscoverX

kinome (kinase panel) [9] = target: T9, kinome (kinase panel) (Homo sapiens, UniProt P10721); settings: 1000 nM, read-out: Percent Control
T9 construct: purchased Eurofins DiscoverX
T9 sequence (P10721 26-976): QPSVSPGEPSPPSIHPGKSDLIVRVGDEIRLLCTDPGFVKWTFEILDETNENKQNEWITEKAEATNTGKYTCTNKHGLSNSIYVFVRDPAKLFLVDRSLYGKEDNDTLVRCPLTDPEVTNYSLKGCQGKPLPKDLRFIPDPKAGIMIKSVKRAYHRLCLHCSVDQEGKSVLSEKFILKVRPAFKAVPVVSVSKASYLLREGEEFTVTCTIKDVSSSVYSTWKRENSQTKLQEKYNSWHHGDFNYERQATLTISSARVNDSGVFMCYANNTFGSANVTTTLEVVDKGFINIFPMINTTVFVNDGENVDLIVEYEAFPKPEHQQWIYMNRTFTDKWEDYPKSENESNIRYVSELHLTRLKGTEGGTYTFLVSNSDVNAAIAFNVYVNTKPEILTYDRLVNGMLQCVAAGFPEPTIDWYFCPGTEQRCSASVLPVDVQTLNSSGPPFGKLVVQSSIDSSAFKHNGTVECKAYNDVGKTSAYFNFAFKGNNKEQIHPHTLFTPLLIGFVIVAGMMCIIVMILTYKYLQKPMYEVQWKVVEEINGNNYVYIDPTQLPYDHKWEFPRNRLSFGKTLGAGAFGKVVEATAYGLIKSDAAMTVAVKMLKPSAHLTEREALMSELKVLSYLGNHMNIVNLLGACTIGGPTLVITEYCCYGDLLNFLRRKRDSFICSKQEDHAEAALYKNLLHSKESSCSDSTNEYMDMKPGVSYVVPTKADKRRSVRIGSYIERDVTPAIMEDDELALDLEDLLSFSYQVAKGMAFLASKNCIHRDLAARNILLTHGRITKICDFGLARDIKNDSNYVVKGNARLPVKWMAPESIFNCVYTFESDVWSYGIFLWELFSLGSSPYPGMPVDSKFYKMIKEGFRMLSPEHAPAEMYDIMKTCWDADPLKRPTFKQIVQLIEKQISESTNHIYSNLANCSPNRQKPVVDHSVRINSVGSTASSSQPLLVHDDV

kinome (kinase panel) [10] = target: T10, kinome (kinase panel) (Homo sapiens, UniProt P15056); settings: BRAF; 1000 nM; read-out: Percent Control
T10 construct: purchased Eurofins DiscoverX

kinome (kinase panel) [11] = target: T11, kinome (kinase panel) (Homo sapiens, UniProt P29320); settings: EPHA3; 1000 nM; read-out: Percent Control
T11 construct: purchased Eurofins DiscoverX

kinome (kinase panel) [12] = target: T12, kinome (kinase panel) (Homo sapiens, UniProt P42336, I800L); settings: read-out: Percent Control
T12 construct: purchased Eurofins DiscoverX

kinome (kinase panel) [13] = target: T13, kinome (kinase panel) (Homo sapiens, UniProt P42336, M1043I); settings: read-out: Percent Control
T13 construct: purchased Eurofins DiscoverX

kinome (kinase panel) [14] = target: T14, kinome (kinase panel) (Homo sapiens, UniProt P42685); settings: FRK; 1000 nM; read-out: Percent Control
T14 construct: purchased Eurofins DiscoverX
T14 sequence (P42685 whole entry): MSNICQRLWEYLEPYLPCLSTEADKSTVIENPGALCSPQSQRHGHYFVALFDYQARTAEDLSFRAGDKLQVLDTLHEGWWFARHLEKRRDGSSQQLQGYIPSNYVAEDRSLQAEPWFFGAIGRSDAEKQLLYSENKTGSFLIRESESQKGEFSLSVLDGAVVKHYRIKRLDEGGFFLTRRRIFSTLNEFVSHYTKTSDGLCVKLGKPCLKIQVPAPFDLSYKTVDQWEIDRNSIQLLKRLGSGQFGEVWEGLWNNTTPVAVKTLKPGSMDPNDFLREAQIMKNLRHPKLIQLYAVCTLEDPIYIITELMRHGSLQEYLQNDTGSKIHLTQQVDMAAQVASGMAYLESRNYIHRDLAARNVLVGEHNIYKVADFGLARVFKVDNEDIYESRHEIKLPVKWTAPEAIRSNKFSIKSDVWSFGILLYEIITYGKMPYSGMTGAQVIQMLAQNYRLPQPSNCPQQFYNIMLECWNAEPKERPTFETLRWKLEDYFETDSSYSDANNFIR

kinome (kinase panel) [15] = target: T15, kinome (kinase panel) (Homo sapiens, UniProt P43405); settings: SYK; 1000 nM; read-out: Percent Control
T15 construct: purchased Eurofins DiscoverX

kinome (kinase panel) [16] = target: T16, kinome (kinase panel) (Homo sapiens, UniProt P49761); settings: CLK3; 1000 nM; read-out: Percent Control
T16 construct: purchased Eurofins DiscoverX

kinome (kinase panel) [17] = target: T17, kinome (kinase panel) (Homo sapiens, UniProt P53778); settings: p38-gamma (Entrez MAPK12); 1000 nM; read-out: Percent Control
T17 construct: purchased Eurofins DiscoverX
T17 sequence (P53778 whole entry): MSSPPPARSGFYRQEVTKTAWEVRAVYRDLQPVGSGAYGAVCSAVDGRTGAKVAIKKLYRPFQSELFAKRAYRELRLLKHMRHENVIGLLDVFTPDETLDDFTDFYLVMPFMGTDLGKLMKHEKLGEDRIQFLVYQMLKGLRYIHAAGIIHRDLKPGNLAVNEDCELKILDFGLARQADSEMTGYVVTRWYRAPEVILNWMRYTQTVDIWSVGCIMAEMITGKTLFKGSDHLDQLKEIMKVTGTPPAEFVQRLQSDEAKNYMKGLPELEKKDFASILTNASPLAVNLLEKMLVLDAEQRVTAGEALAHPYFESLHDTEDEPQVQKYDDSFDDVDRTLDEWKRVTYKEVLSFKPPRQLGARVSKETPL

kinome (kinase panel) [18] = target: T18, kinome (kinase panel) (Homo sapiens, UniProt Q00536); settings: PCTK1 (Entrez CDK16); 1000 nM; read-out: Percent Control
T18 construct: purchased Eurofins DiscoverX

kinome (kinase panel) [19] = target: T19, kinome (kinase panel) (Homo sapiens, UniProt Q00537); settings: PCTK2 (Entrez CDK17); 1000 nM; read-out: Percent Control
T19 construct: purchased Eurofins DiscoverX

kinome (kinase panel) [20] = target: T20, kinome (kinase panel) (Homo sapiens, UniProt Q13627); settings: DYRK1A; 1000 nM; read-out: Percent Control
T20 construct: purchased Eurofins DiscoverX

kinome (kinase panel) [21] = target: T21, kinome (kinase panel) (Homo sapiens, UniProt Q14289); settings: PYK2 (Entrez PTK2B); 1000 nM; read-out: Percent Control
T21 construct: purchased Eurofins DiscoverX

kinome (kinase panel) [22] = target: T22, kinome (kinase panel) (Homo sapiens, UniProt Q16832); settings: DDR2; 1000 nM; read-out: Percent Control
T22 construct: purchased Eurofins DiscoverX

kinome (kinase panel) [23] = target: T23, kinome (kinase panel) (Homo sapiens, UniProt Q2M2I8); settings: AAK1; 1000 nM; read-out: Percent Control
T23 construct: purchased Eurofins DiscoverX

kinome (kinase panel) [24] = target: T24, kinome (kinase panel) (Homo sapiens, UniProt Q92772); settings: CDKL2; 1000 nM; read-out: Percent Control
T24 construct: purchased Eurofins DiscoverX

kinome (kinase panel) [25] = target: T25, kinome (kinase panel) (Homo sapiens, UniProt Q96BR1); settings: SGK3; 1000 nM; read-out: Percent Control
T25 construct: purchased Eurofins DiscoverX

kinome (kinase panel) [26] = target: T26, kinome (kinase panel) (Homo sapiens, UniProt Q96D53); settings: ADCK4; 1000 nM; read-out: Percent Control
T26 construct: purchased Eurofins DiscoverX
T26 sequence (Q96D53 whole entry): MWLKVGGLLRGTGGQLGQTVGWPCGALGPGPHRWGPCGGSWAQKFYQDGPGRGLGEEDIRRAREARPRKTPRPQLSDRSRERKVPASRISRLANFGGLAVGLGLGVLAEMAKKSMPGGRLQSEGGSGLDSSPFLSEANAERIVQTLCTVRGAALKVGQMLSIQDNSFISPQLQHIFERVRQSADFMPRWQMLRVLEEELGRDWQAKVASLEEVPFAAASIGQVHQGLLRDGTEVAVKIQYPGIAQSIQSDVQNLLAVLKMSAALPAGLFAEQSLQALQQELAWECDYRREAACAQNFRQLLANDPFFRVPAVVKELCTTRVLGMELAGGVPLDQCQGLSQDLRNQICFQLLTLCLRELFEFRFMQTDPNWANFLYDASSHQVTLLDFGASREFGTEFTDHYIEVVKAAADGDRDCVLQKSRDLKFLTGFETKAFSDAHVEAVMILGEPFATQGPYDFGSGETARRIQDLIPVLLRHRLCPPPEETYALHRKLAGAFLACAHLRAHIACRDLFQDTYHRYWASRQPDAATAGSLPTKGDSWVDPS

kinome (kinase panel) [27] = target: T27, kinome (kinase panel) (Homo sapiens, UniProt Q96PN8); settings: TSSK3; 1000 nM; read-out: Percent Control
T27 construct: purchased Eurofins DiscoverX
T27 sequence (Q96PN8 whole entry): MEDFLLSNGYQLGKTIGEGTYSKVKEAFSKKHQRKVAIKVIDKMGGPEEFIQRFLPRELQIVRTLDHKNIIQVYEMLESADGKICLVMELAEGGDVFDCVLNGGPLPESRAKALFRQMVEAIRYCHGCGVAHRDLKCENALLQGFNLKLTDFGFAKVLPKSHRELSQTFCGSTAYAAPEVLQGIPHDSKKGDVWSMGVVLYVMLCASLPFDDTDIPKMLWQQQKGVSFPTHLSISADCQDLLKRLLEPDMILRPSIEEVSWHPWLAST

kinome (kinase panel) [28] = target: T28, kinome (kinase panel) (Homo sapiens, UniProt Q96RR4); settings: CAMKK2; 1000 nM; read-out: Percent Control
T28 construct: purchased Eurofins DiscoverX

kinome (kinase panel) [29] = target: T29, kinome (kinase panel) (Homo sapiens, UniProt Q9BVS4); settings: RIOK2; 1000 nM; read-out: Percent Control
T29 construct: purchased Eurofins DiscoverX
T29 sequence (Q9BVS4 whole entry): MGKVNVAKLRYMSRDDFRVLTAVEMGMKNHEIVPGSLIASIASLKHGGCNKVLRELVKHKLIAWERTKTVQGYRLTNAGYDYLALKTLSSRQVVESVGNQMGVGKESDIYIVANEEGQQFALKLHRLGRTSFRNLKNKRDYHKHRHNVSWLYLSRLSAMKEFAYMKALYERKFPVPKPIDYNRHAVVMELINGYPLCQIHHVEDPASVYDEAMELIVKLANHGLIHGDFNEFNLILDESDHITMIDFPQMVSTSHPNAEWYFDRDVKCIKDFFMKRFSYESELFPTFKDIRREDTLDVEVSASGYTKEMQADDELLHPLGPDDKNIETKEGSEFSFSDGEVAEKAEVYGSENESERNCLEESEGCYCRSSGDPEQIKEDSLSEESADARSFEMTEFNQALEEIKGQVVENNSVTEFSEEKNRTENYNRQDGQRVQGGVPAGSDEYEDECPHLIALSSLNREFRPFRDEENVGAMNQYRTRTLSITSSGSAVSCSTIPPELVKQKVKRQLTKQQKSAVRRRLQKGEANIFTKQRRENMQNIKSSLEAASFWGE

kinome (kinase panel) [30] = target: T30, kinome (kinase panel) (Homo sapiens, UniProt Q9H2X6); settings: HIPK2; 1000 nM; read-out: Percent Control
T30 construct: purchased Eurofins DiscoverX

kinome (kinase panel) [31] = target: T31, kinome (kinase panel) (Homo sapiens, UniProt Q9UKI8); settings: TLK1; 1000 nM; read-out: Percent Control
T31 construct: purchased Eurofins DiscoverX

kinome (kinase panel) [32] = target: T32, kinome (kinase panel) (Homo sapiens, UniProt Q9Y2K2); settings: QSK (Entrez KIAA0999); 1000 nM; read-out: Percent Control
T32 construct: purchased Eurofins DiscoverX
T32 sequence (Q9Y2K2 whole entry): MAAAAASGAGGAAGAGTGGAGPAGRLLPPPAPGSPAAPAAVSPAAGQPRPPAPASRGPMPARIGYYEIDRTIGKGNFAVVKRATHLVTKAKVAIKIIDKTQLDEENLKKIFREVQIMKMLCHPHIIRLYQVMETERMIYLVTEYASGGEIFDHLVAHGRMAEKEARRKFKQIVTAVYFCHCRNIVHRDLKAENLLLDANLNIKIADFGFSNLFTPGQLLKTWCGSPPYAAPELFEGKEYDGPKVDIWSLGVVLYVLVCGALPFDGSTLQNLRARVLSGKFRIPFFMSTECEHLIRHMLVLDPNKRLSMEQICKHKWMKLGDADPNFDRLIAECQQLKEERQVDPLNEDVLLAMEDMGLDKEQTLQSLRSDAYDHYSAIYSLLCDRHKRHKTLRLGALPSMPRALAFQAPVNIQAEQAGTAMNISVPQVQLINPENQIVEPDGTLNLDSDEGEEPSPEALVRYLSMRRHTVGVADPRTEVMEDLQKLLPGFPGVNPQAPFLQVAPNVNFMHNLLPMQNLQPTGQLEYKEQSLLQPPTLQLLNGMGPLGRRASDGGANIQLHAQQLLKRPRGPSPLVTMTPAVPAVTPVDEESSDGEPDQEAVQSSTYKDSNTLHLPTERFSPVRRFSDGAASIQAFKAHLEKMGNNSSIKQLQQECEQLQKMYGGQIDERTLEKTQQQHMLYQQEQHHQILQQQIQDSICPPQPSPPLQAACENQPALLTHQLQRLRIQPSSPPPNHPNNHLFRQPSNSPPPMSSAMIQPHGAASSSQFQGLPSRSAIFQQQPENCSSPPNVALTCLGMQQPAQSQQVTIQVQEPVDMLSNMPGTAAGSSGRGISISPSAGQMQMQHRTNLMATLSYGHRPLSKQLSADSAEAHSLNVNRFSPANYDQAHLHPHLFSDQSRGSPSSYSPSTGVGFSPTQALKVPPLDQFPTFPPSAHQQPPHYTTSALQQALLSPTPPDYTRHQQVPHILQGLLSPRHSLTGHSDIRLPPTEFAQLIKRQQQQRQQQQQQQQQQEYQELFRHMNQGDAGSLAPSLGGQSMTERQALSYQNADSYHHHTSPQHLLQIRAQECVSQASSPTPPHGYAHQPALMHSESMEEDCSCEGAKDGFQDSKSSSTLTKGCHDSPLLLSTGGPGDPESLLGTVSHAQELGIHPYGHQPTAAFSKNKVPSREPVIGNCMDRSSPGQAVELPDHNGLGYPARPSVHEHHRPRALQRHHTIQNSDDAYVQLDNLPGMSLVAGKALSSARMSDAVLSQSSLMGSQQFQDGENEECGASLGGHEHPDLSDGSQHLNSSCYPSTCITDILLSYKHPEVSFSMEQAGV

SMILES: CN(C)C(=O)c1cc2cnc(Nc3ccc(-c4csc5c(=O)cc(N6CCOCC6)oc45)cc3)nc2n1C1CCCC1 [SRX3177]
- remaining binding at 1 µM (kinome (kinase panel) [1]): 63%
- remaining binding at 1 µM (kinome (kinase panel) [2]): 100%
- remaining binding at 1 µM (kinome (kinase panel) [3]): 34%
- remaining binding at 1 µM (kinome (kinase panel) [4]): 28%
- remaining binding at 1 µM (kinome (kinase panel) [5]): 100%
- remaining binding at 1 µM (kinome (kinase panel) [6]): 74%
- remaining binding at 1 µM (kinome (kinase panel) [7]): 96%
- remaining binding at 1 µM (kinome (kinase panel) [8]): 93%
- remaining binding at 1 µM (kinome (kinase panel) [9]; KIT-autoinhibited): 73%
- remaining binding at 1 µM (kinome (kinase panel) [9]; KIT): 68%
- remaining binding at 1 µM (kinome (kinase panel) [10]): 79%
- remaining binding at 1 µM (kinome (kinase panel) [11]): 90%
- remaining binding at 1 µM (kinome (kinase panel) [12]): 8.9%
- remaining binding at 1 µM (kinome (kinase panel) [13]): 70%
- remaining binding at 1 µM (kinome (kinase panel) [14]): 100%
- remaining binding at 1 µM (kinome (kinase panel) [15]): 81%
- remaining binding at 1 µM (kinome (kinase panel) [16]): 79%
- remaining binding at 1 µM (kinome (kinase panel) [17]): 66%
- remaining binding at 1 µM (kinome (kinase panel) [18]): 21%
- remaining binding at 1 µM (kinome (kinase panel) [19]): 55%
- remaining binding at 1 µM (kinome (kinase panel) [20]): 60%
- remaining binding at 1 µM (kinome (kinase panel) [21]): 100%
- remaining binding at 1 µM (kinome (kinase panel) [22]): 56%
- remaining binding at 1 µM (kinome (kinase panel) [23]): 49%
- remaining binding at 1 µM (kinome (kinase panel) [24]): 97%
- remaining binding at 1 µM (kinome (kinase panel) [25]): 100%
- remaining binding at 1 µM (kinome (kinase panel) [26]): 43%
- remaining binding at 1 µM (kinome (kinase panel) [27]): 100%
- remaining binding at 1 µM (kinome (kinase panel) [28]): 36%
- remaining binding at 1 µM (kinome (kinase panel) [29]): 6.6%
- remaining binding at 1 µM (kinome (kinase panel) [30]): 76%
- remaining binding at 1 µM (kinome (kinase panel) [31]): 94%
- remaining binding at 1 µM (kinome (kinase panel) [32]): 59%

From publication PMC7385619, “A triple action CDK4/6-PI3K-BET inhibitor with augmented cancer cell cytotoxicity” (Cell Discovery, 2020)
